Experimental data from patent publication US8278464B2, “Insecticides” (Syngenta Crop Protection LLC, priority 2006, dated 2012).

Assays:
Type in all cases: in vivo
[1] = test system: Heliothis virescens (Tobacco Budworm); test: Activity against Heliothis virescens, eggs on artificial diet (Example B2); settings: 96 h, eggs 0-24 h old, incubation 4 days
Protocol: Eggs (0-24 h old) are placed in 24-well microtiter plate on artificial diet and treated with test solutions by pipetting. After an incubation period of 4 days, samples are checked for egg mortality, larval mortality, and growth regulation.

[2] = test system: Plutella xylostella (Diamond Back Moth); test: Activity against Plutella xylostella, artificial diet MTP (Example B3); settings: 120 h, L2 larvae, incubation 5 days
Protocol: (§1) 24-well microtiter plate (MTP) with artificial diet is treated with test solutions by pipetting. After drying, the MTP's are infested with larvae (L2) (10-15 per well). After an incubation period of 5 days, samples are checked for larval mortality, antifeedant and growth regulation. In this test, compounds listed in the Tables above show good activity. In particular compounds T13.1.2, T15.1.1, T15.1.91, T13.1.1, T9.1.2 (diastereomer A), T9.1.2 (diastereomer B), T16.1.1, T17.1.2 (diastereomer A), T17.1.2 (diastereomer B), T16.1.91, T13.1.92, T13.1.361, T13.1.391, T13.1.91, T13.1.6, T13.1.96, T44.1.2, T13.1.8, T13.1.23, T13.1.93, T13.1.113, T13.1.21, T13.1.111 have an activity of over 80% at 400 ppm.

[3] = test system: Spodoptera littoralis (Cotton Leafworm); test: Systemic insecticide test for Spodoptera littoralis, maize seedlings, 12.5 ppm (Example B9); settings: 96 h, 12.5 ppm in water, systemic via maize seedlings, larvae incubated four days
Protocol: (§2) Four day old maize seedlings (Zea mais, variety Stoneville) are placed individual in vials containing 24 ml water into which the chemical is diluted at 12.5 ppm. Seedlings are allowed to grow for six days. Subsequently leaves are cut and placed in a Petri dish (5 cm diameter), inoculated with twelve to fifteen 1st instar S. littoralis larvae and incubated for four days in a growth chamber (25° C., 50% r.h., 18:6 L:D photo period). Number of alive insects are counted and percentage of dead calculated. Tests were conducted with one replicate.

[4] = test system: Myzus persicae (Green Peach Aphid); test: Activity against Myzus persicae, systemic, pea seedlings (Example B6); settings: 144 h, 6 days after introduction
Text: Roots of pea seedlings, infested with an aphid population of mixed ages, are placed directly in the test solutions. 6 days after introduction, samples are checked for mortality and special effects on the plant.

[5] = test system: Diabrotica balteata (Corn Root Worm); test: Activity against Diabrotica balteata, artificial diet MTP (Example B4); settings: 120 h, L2 larvae, incubation 5 days
Protocol: as §1, with “(6-10” for “(10-15”, “B),” for “B), T16.1.1,”, “T13.1.92,” for “T13.1.92, T13.1.361, T13.1.391,”, “T13.1.23,” for “T13.1.23, T13.1.93,”

[6] = test system: Spodoptera littoralis (Egyptian Cotton Leafworm); test: Activity against Spodoptera littoralis, cotton leaf discs sprayed (Example B1); settings: foliar, 72 h, L1 larvae, checked 3 days after treatment
Text: Cotton leaf discs are placed on agar in a 24-well microtiter plate and sprayed with test solutions. After drying, the leaf discs are infested with 5 L1 larvae. The samples are checked for mortality, repellent effect, feeding behaviour, and growth regulation 3 days after treatment (DAT).

[7] = test system: Thrips tabaci (Onion Thrips); test: Activity against Thrips tabaci, sunflower leaf discs (Example B7); settings: foliar, 144 h, incubation 6 days
Protocol: Sunflower leaf discs are placed on agar in a 24-well microtiter plate and sprayed with test solutions. After drying, the leaf discs are infested with a thrips population of mixed ages. After an incubation period of 6 days, samples are checked for mortality and special effects (e.g. phytotoxicity).

[8] = test system: Myzus persicae (Green Peach Aphid); test: Activity against Myzus persicae, contact, sunflower leaf discs (Example B5); settings: foliar, 144 h, 6 DAT
Protocol: Sunflower leaf discs are placed on agar in a 24-well microtiter plate and sprayed with test solutions. After drying, the leaf discs are infested with an aphid population of mixed ages. After an incubation period of 6 DAT, samples are checked for mortality and special effects (e.g. phytotoxicity).

[9] = test system: Spodoptera littoralis (Lepidoptera:Noctuidae); test: Systemic insecticide test for Spodoptera littoralis, comparison with state of the art (Example B11)
Protocol: as §2, with “the prescribed concentrations (3 and 0.8 ppm).” for “12.5 ppm.”, “(3.5” for “(5”, “calculated. Effects on larvae growth were compared to the control and percentage of larvae growth reduction calculated.” for “calculated.”

For `Cc1cc(Cl)cc(C(=O)NC2(C)C[S+]([O-])C2)c1NC(=O)c1cc(C(F)(F)F)nn1-c1ncccc1Cl` (single isomer, unassigned) [T9.1.2 (diastereomer A)], the pest or weed control at 400 ppm [1] was > 80%, the pest or weed control at 400 ppm [2] was > 80% and the pest or weed control at 12.5 ppm [3] was > 80%. The pest or weed control at 400 ppm [4] was > 80%, the pest or weed control at 400 ppm [5] was > 80% and the pest or weed control at 400 ppm [6] was > 80%. For the same compound, the pest or weed control at 400 ppm [7] was > 80% and the pest or weed control at 400 ppm [8] was > 80%.

`Cc1cc(Cl)cc(C(=O)NC2(C)CS(=N)(=O)C2)c1NC(=O)c1cc(C(F)(F)F)nn1-c1ncccc1Cl` (single isomer, unassigned) [T17.1.2 (diastereomer A)] was tested, and the pest or weed control at 400 ppm [1] was > 80%, the pest or weed control at 400 ppm [2] was > 80% and the pest or weed control at 12.5 ppm [3] was > 80%. The pest or weed control at 400 ppm [4] was > 80%, the pest or weed control at 400 ppm [5] was > 80% and the pest or weed control at 400 ppm [6] was > 80%. The pest or weed control at 400 ppm [7] was > 80% and the pest or weed control at 400 ppm [8] was > 80%.

For `O=C(NC1CCC1)c1cccc(Cl)c1NC(=O)c1cc(C(F)(F)F)nn1-c1ncccc1Cl` [Comp. 296, reference compound], the “Death rate (%) after 4 days” value ([9]; concentration 0.8 ppm) was 0%, the “Larvae growth reduction (% compared to control)” value ([9]; concentration 0.8 ppm) was 0% and the “Death rate (%) after 4 days” value ([9]; concentration 3 ppm) was 0%. The “Larvae growth reduction (% compared to control)” value ([9]; concentration 3 ppm) was 0%.

In the case of `Cc1cc(Cl)cc(C(=O)NC2(C)CS(=O)(=O)C2)c1NC(=O)c1cc(C(F)(F)F)nn1-c1ncccc1Cl` [T13.1.2, 2-(3-Chloro-pyridin-2-yl)-5-trifluoromethyl-2H-pyrazole-3-carboxylic acid [4-chloro-2-methyl-6-(3-methyl-1,1-dioxo-1λ^6-thietan-3-ylcarbamoyl)-phenyl]-amide], the pest or weed control at 400 ppm [1] is reported as > 80%, the pest or weed control at 400 ppm [2] is reported as > 80% and the pest or weed control at 12.5 ppm [3] is reported as > 80%. The pest or weed control at 400 ppm [4] was > 80%, the pest or weed control at 400 ppm [5] was > 80% and the pest or weed control at 400 ppm [6] was > 80%. For the same compound, the pest or weed control at 400 ppm [7] was > 80% and the pest or weed control at 400 ppm [8] was > 80%.

For `Cc1cc(Cl)cc(C(=O)NC2CS(=O)(=O)C2)c1NC(=O)c1cc(OCC(F)(F)F)nn1-c1ncccc1Cl` [T13.1.21], the pest or weed control at 400 ppm [1] was > 80%, the pest or weed control at 400 ppm [2] was > 80% and the pest or weed control at 400 ppm [4] was > 80%. For the same compound, the pest or weed control at 400 ppm [5] was > 80%, the pest or weed control at 400 ppm [6] was > 80% and the pest or weed control at 400 ppm [7] was > 80%. For the same compound, the pest or weed control at 400 ppm [8] was > 80%.

With `Cc1cc(C#N)cc(C(=O)NC2(C)CS(=O)(=O)C2)c1NC(=O)c1cc(C(F)(F)F)nn1-c1ncccc1Cl` [T13.1.92] the pest or weed control at 400 ppm [1] was > 80%, the pest or weed control at 400 ppm [2] was > 80% and the pest or weed control at 12.5 ppm [3] was > 80%. The pest or weed control at 400 ppm [4] was > 80%, the pest or weed control at 400 ppm [5] was > 80% and the pest or weed control at 400 ppm [6] was > 80%. The pest or weed control at 400 ppm [7] was > 80% and the pest or weed control at 400 ppm [8] was > 80%.

For `Cc1cc(C#N)cc(C(=O)NC2CS(=O)(=O)C2)c1NC(=O)c1cc(Br)nn1-c1ncccc1Cl` [T13.1.96], the pest or weed control at 400 ppm [1] was > 80%, the pest or weed control at 400 ppm [2] was > 80% and the pest or weed control at 12.5 ppm [3] was > 80%. For the same compound, the pest or weed control at 400 ppm [4] was > 80%, the pest or weed control at 400 ppm [5] was > 80% and the pest or weed control at 400 ppm [6] was > 80%. The pest or weed control at 400 ppm [7] was > 80% and the pest or weed control at 400 ppm [8] was > 80%.

For `O=C(NC1CS(=O)(=O)C1)c1cccc(Cl)c1NC(=O)c1cc(C(F)(F)F)nn1-c1ncccc1Cl` [T13.1.391], the pest or weed control at 400 ppm [1] was > 80%, the pest or weed control at 400 ppm [2] was > 80% and the pest or weed control at 12.5 ppm [3] was > 80%. The pest or weed control at 400 ppm [6] was > 80%, the “Death rate (%) after 4 days” value ([9]; concentration 0.8 ppm) was 10% and the “Larvae growth reduction (% compared to control)” value ([9]; concentration 0.8 ppm) was 0%. The “Death rate (%) after 4 days” value ([9]; concentration 3 ppm) was 55% and the “Larvae growth reduction (% compared to control)” value ([9]; concentration 3 ppm) was 100%.
